The results in this text go back to PubChem BioAssay (NCI).

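Tested at 5 concentrations; 48 h exposure; 96-well plates; endpoints linearly interpolated, else capped at highest concentration. At the GI50, growth is halved. Definition used: TGI = concentration required for complete inhibition of growth.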 Some results are limits rather than exact numbers.

Some test systems named below: CCRF-CEM leukemia; HCT-15 colon; HOP-92 NSCLC; IGROV1 ovarian; K-562 leukemia; KM20L2 colon; MALME-3M melanoma; NCI-H226 lung; NCI-H23 lung; NCI-H460 lung; OVCAR-8 ovarian; SF-268 CNS; SF-539 CNS; SK-MEL-2 melanoma; SK-MEL-5 melanoma; SNB-19 CNS; U251 CNS; HCT-116 colon; MCF7 breast.
What all share (test): NCI tumour cell line growth inhibition, 48 h

On to `O=C(N/N=C/c1cc(Br)cc(Br)c1[O-])c1ccccc1O.O=C(N/N=C/c1cc(Br)cc(Br)c1[O-])c1ccccc1O.[Cu+2]`, for which, in the assay on CCRF-CEM leukemia, the GI50 was 0.446 µM. Further, the TGI in the assay with CCRF-CEM leukemia worked out at 4.54 µM; in the assay on HCT-15 colon it was 1.77 µM; in the assay on HOP-92 NSCLC, 1.28 µM; in the assay with IGROV1 ovarian, 1.06 µM; in the assay with K-562 leukemia it was 0.213 µM; in the assay with KM20L2 colon, 2.09 µM. The TGI is 1.35 µM in the assay with MALME-3M melanoma; 1.98 µM with NCI-H226 lung; 0.484 µM in the assay with NCI-H23 lung; 13.6 µM in the assay with NCI-H460 lung; 1.38 µM in the assay with OVCAR-8 ovarian; 2.51 µM in the assay with SF-268 CNS. In addition, the TGI was 0.926 µM in the assay with SF-539 CNS; 1.93 µM with SK-MEL-2 melanoma; 0.844 µM in the assay on SK-MEL-5 melanoma; 2.28 µM in the assay on SNB-19 CNS; 1.24 µM with U251 CNS.

As for `CN1C2CCC1CC(C)(O)C2` (stereo not drawn), the TGI with CCRF-CEM leukemia, with HCT-116 colon, with HCT-15 colon, with K-562 leukemia, in the assay with MALME-3M melanoma and in the assay with MCF7 breast was above 100 µM each time. Also, the TGI with NCI-H226 lung, in the assay with NCI-H23 lung, with NCI-H460 lung, in the assay on OVCAR-8 ovarian, in the assay on SF-268 CNS and in the assay with SK-MEL-2 melanoma was above 100 µM in each case. The TGI in the assay on SNB-19 CNS and in the assay on U251 CNS was above 100 µM each time.

Turning to `Nc1ccn(C2OC(CO)C(O)C2O)c(=O)c1` (stereo not drawn), the TGI in the assay on CCRF-CEM leukemia, in the assay with HCT-116 colon, with HCT-15 colon, in the assay with HOP-92 NSCLC, in the assay on IGROV1 ovarian and in the assay with KM20L2 colon was above 625 µM each time. The TGI in the assay on MALME-3M melanoma is 365 µM; in the assay with MCF7 breast, above 625 µM; with NCI-H226 lung, above 625 µM; in the assay with NCI-H23 lung, above 625 µM; in the assay with NCI-H460 lung it was above 625 µM; in the assay with OVCAR-8 ovarian it was above 625 µM. For the same molecule, the TGI in the assay on SF-268 CNS, in the assay on SF-539 CNS, in the assay with SK-MEL-5 melanoma, in the assay with SNB-19 CNS and in the assay with U251 CNS was above 625 µM each time.

As to `COc1ccc(C2COc3cc(O)c(O)cc3C2)cc1` (stereo not drawn), the TGI in the assay on CCRF-CEM leukemia was 16.1 µM; in the assay with HCT-116 colon it was 42.1 µM; with HCT-15 colon, 99.3 µM; in the assay with HOP-92 NSCLC, 24 µM; in the assay on IGROV1 ovarian, 148 µM; with K-562 leukemia, 34.2 µM. Also, the TGI in the assay on KM20L2 colon was 221 µM; in the assay on MALME-3M melanoma it was 59.3 µM; with MCF7 breast, 176 µM; with NCI-H226 lung, 213 µM; with NCI-H23 lung, 159 µM; in the assay on NCI-H460 lung it was 213 µM. Moreover, the TGI was 63.3 µM with OVCAR-8 ovarian; 127 µM in the assay on SF-268 CNS; 136 µM with SF-539 CNS; 146 µM in the assay with SK-MEL-2 melanoma; 72.4 µM with SK-MEL-5 melanoma; 214 µM in the assay on SNB-19 CNS. In the assay on U251 CNS, this molecule gave a TGI of 77.8 µM.
